Laboratory results from US12180187B2, “1-phenyl-5-azinylpyrazolyl-3-oxyalkyl acids and their use for controlling unwanted plant growth” (BAYER AKTIENGESELLSCHAFT, priority 2019, dated 2024).

Legend:
[1] = tested on: AVEFA; assay: Pre-emergence action at 320 g/ha against AVEFA; format: in vivo; conditions: visual scoring after about 3 weeks vs untreated controls
In short: (§1)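 WP/EC formulations applied pre-emergence to covering soil, water rate 600 l/ha, 0.5% additive. Greenhouse, ~3 weeks. Visual % damage vs untreated (0–100%).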

[2] = tested on: ABUTH; assay: Pre-emergence action against ABUTH, 1280 g/ha; format: in vivo, Abutilon theophrasti; conditions: scored visually after about 3 weeks vs untreated controls (100% = plants have died)
In short: (§2)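 Weed seeds sown in sandy loam in pots, covered with soil; compound as WP or EC applied to soil surface as aqueous suspension/emulsion with 0.5% additive at 600 L/ha water. Greenhouse, good growth conditions; visual % damage vs untreated controls after about 3 weeks (100% = plants dead, 0% = like control).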

[3] = tested on: ALOMY; assay: Post-emergence action against ALOMY, 320 g/ha; format: in vivo, Alopecurus myosuroides; conditions: dosage 320 g/ha, visual rating about 3 weeks after treatment vs untreated controls (100% = plants died)
In short: (§3)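 Visual % activity vs untreated controls (0% = like control, 100% = plants dead), scored ~3 wk after treatment. Plants were grown in sandy loam in a greenhouse and sprayed on green parts at the one-leaf stage (2–3 wk post-sowing). Spray: WP or EC in water, 0.5% additive, 600 l/ha.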

[4] = tested on: ECHCG; assay: Post-emergence action at 320 g/ha against ECHCG; format: in vivo, Echinochloa crus-galli; conditions: dosage 320 g/ha, visual rating about 3 weeks after treatment vs untreated controls (100% = plants died)
In short: as §3

[5] = tested on: DIGSA; assay: Pre-emergence action against DIGSA, 1280 g/ha; format: in vivo, Digitaria sanguinalis; conditions: visual scoring after about 3 weeks vs untreated controls, 100% = plants have died, 0% = like control plants
In short: as §2

[6] = tested on: LOLRI; assay: Post-emergence action against LOLRI, 1.28 kg/ha; format: in vivo, Lolium rigidum; conditions: dosage 1280 g/ha, visual rating about 3 weeks after treatment vs untreated controls
In short: (§4)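 Activity scored visually roughly 3 weeks after treatment against untreated plants (0% = as control, 100% = dead). Plants grown in sandy loam in greenhouse, treated at one-leaf stage, 2–3 weeks post-sowing, with WP/EC spray containing 0.5% additive at 600 l/ha.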

[7] = tested on: VERPE; assay: Post-emergence action against VERPE, 1.28 kg/ha; format: in vivo, Veronica persica; conditions: dosage 1280 g/ha, visual rating about 3 weeks after treatment vs untreated controls (100% = plants died)
In short: as §4

[8] = tested on: DIGSA; assay: Post-emergence action at 320 g/ha against DIGSA; format: in vivo, Digitaria sanguinalis; conditions: dosage 320 g/ha, visual rating about 3 weeks after treatment vs untreated controls (100% = plants died)
In short: as §3

[9] = tested on: VIOTR; assay: Pre-emergence action at 320 g/ha against VIOTR; format: in vivo, Viola tricolor; conditions: dosage 320 g/ha
In short: as §1

[10] = tested on: AMARE; assay: Post-emergence action against AMARE, 1.28 kg/ha; format: in vivo, Amaranthus retroflexus; conditions: dosage 1280 g/ha, visual rating about 3 weeks after treatment vs untreated controls (100% = plants died)
In short: as §4

[11] = tested on: SETVI; assay: Post-emergence action against SETVI, 1.28 kg/ha; format: in vivo, Setaria viridis; conditions: dosage 1280 g/ha, visual rating about 3 weeks after treatment vs untreated controls
In short: as §4

[12] = tested on: PHBPU; assay: Post-emergence action at 320 g/ha against PHBPU; format: in vivo; conditions: visual rating about 3 weeks after treatment vs untreated controls
Description: Accordingly, the compounds of the invention have good herbicidal action against a broad spectrum of weed grasses and broad-leaved weeds and are therefore suitable for controlling unwanted vegetation by the post-emergence method. • b) Seeds of monocotyledonous and dicotyledonous weeds and crop plants are placed in sandy loam in plastic or organic planting pots, covered with soil and cultivated in a greenhouse under controlled growth conditions. 2 to 3 weeks after sowing, the test plants are treated at the one-leaf stage. The compounds of the invention, formulated in the form of wettable powders (WP) or as emulsion concentrates (EC), are then sprayed onto the green parts of the plants as aqueous suspension or emulsion with addition of 0.5% additive at a water application rate of 600 l/ha (converted). After the test plants have been kept in the greenhouse under optimum growth conditions for about 3 weeks, the activity of the preparations is rated visually in comparison to untreated controls. For example, 100% activity=the plants have died, 0% activity=like control plants. Tables 39 to 49 below show the effects of selected compounds of the general formula (I) according to Tables 1 and 2 on various harmful plants and at an application rate corresponding to 320 g/ha, which were obtained by the experimental procedure mentioned above.

[13] = tested on: ALOMY; assay: Pre-emergence action against ALOMY, 1280 g/ha; format: in vivo, Alopecurus myosuroides; conditions: visual scoring after about 3 weeks vs untreated controls, 100% = plants have died, 0% = like control plants
In short: as §2

[14] = tested on: VIOTR; assay: Post-emergence action at 320 g/ha against VIOTR; format: in vivo, Viola tricolor; conditions: visual rating about 3 weeks after treatment vs untreated controls
In short: as §3

Row | Compound | Pre-emergence action against AVEFA in % [1] | Pre-emergence action against ABUTH [2] | Post-emergence action against ALOMY [3] | Post-emergence action at 320 g/ha against ECHCG in % [4] | Pre-emergence action against DIGSA [5] | Post-emergence action against LOLRI [6] | Post-emergence action against VERPE [7] | Post-emergence action at 320 g/ha against DIGSA in % [8] | Pre-emergence action against VIOTR in % [9] | Post-emergence action against AMARE [10] | Post-emergence action against SETVI [11] | Post-emergence action against PHBPU in % [12] | Pre-emergence action against ALOMY [13] | Post-emergence action against VIOTR in % [14]
1 | O=C(COc1nn(-c2ccccc2F)c(-c2ccc(F)nc2)c1Br)OCC1OCCO1 [VII-103] | 90% | 90% | 100% | 80% | 100% | 100% | 100% | 90% | 100% | 90% | 90% | 80% | 100% | 
2 | CCOC(=O)C(C)Oc1nn(-c2ccccc2F)c(-c2ccc(F)nc2)c1C(F)(F)F (stereo not shown) [VII-066] | 90% |  | 90% | 80% | 100% | 100% | 90% | 90% | 100% | 90% | 90% |  | 100% | 80%
3 | COC(=O)[C@@H](C)Oc1nn(-c2cc(F)ccc2F)c(-c2cncc(F)c2)c1C#N [VII-147] | 100% | 90% | 90% | 80% | 100% | 100% | 100% |  | 100% | 100% | 90% | 90% | 100% | 
4 | O=C(COc1nn(-c2ccccc2F)c(-c2ccc(F)nc2)c1Br)OCC1CCOC1 (stereo not shown) [VII-091] | 90% | 90% | 90% |  | 100% | 100% | 100% | 90% | 100% | 90% | 90% |  | 100% | 
5 | COC(=O)CNC(=O)COc1nn(-c2ccccc2F)c(-c2ccc(F)nc2)c1C(F)(F)F [Example X-007] | 100% | 90% | 100% | 80% | 100% | 100% | 90% |  | 100% | 90% | 100% |  | 100% | 80%
6 | COCCOC(=O)COc1nn(-c2ccccc2F)c(-c2ccc(F)nc2)c1Br [VII-052] | 90% | 100% | 90% |  | 100% |  | 100% | 90% | 100% | 90% | 90% | 80% | 100% | 80%
7 | CCOC(=O)COc1nn(-c2ccccc2F)c(-c2ccc(F)nc2)c1C [VII-117] | 100% | 90% | 90% |  | 100% | 100% | 100% | 90% | 100% | 100% |  |  | 100% | 80%
8 | COC(=O)[C@H](C)Oc1nn(-c2cc(F)ccc2F)c(-c2ccc(F)nc2)c1Br [VII-107] | 90% |  | 90% | 80% | 100% |  | 100% | 90% | 100% | 100% | 90% |  | 90% | 80%
9 | CCOC(=O)C(C)Oc1nn(-c2ccccc2F)c(-c2ccc(F)nc2)c1I (stereo not shown) [VII-057] | 90% | 90% | 80% |  | 100% |  | 90% | 90% | 100% | 100% | 100% |  | 100% | 80%
10 | O=C(O)COc1nn(-c2ccccc2F)c(-c2ccc(F)nc2)c1I [VII-037] | 90% |  | 100% | 80% | 100% | 90% | 100% | 90% | 100% | 90% | 90% | 80% | 100% | 80%
